For data set [1], the system named is primary mouse aortic SMC. It counts as cell-based. Conditions: for proliferation of primary mouse aortic SMC (MTT), TAT-fused peptides: 100 μM, MTT after 2 days. How it is done:
(§1) Cell culture conditions The isolation and culture of primary mouse aortic VSMC have was performed according to methods previously described (Afroze T, Yang L L, Wang C, Gros R, Kalair W, Hogue A N, Mungrue I N, Zhu Z, Husain M. Calcineurin-independent regulation of plasma membrane Ca2+ ATPase-4 in the vascular smooth muscle cell cycle. Am J Physiol Cell Physiol. July 2003; 285(1):C88-95). VSMCs were grown in DMEM (GIBCO/BRL, Gaithersburg, Md.) supplemented with 10% FBS (Hyclone, Logan, Utah), 50 ng/mL platelet-derived growth factor (PDGF, Sigma) and 1% penicillin-streptomycin (GIBCO/BRL). For serum starvation, cells were grown to 60% to 70% confluence, washed twice with PBS, and cultured in starvation medium (0.25% FBS-supplemented DMEM) for 72 hours to achieve Go arrest. Progression to G1/S was brought about by stimulation with 10% FBS and 50 ng/mL PDGF for 24 hours. Cells and reagents for primary human aortic VSMC culture were purchased from Cascade Biologics. Human VSMC(C-007-5C) were grown in Medium 231 with Smooth Muscle Growth Supplement (SMGS) S-007-25 and 1% penicillin-streptomycin (GIBCO/BRL). Cyclin E1/E2 double knockout mouse embryonic fibroblasts (MEF) were kindly provided by Dr. P. Sicinski (Harvard Medical School), and maintained in DMEM with 10% FBS (Hyclone) and 1% penicillin-streptomycin (GIBCO/BRL). Go arrest of MEF was achieved by starvation for 48 h in medium lacking FBS. Mouse embryonic fibroblasts (MEF) were maintained for normal culture in 10% FBS-supplemented DMEM. For the starvation of MEF, cells were cultured in starvation medium without FBS for 48 hours to achieve Go arrest. HeLa (human cervical cancer cell), Saos-2 (human osteosarcoma cell) and A549 (human lung cancer cell) were cultured in 10% FBS-supplemented DMEM.
(§2) MTT colorimetric survival assay. Active mitochondria of living cells can cleave MTT to produce formazan, the amount of which is directly proportional to the number of living cells. Cell survival was assessed (Denizot, 1986). Cells in 96-well plate were washed two times with PBS followed by 4 hr of incubation at 37° C. with 1 mg/ml of MTT (in phenol red free DMEM supplemented with 2 mM of L-glutamine & 1 mM of sodium pyruvate) in a reaction volume of 100 μl. After removing MTT solution, DMSO was added to dissolve formazan crystals. Plate was shaken for 5 min at 55° C. for complete dissolve. Dye absorbance in viable cells was measured at 570 nm with 630 nm as a reference wavelength. All experiments were repeated at least 3 times, and each experimental condition was repeated in at least quadruplicate wells in each experiment.
Nucleofection. For peptides delivery via Nucleofector technology, 1×10^6 cells were harvested, resuspended in 100 μl of Nucleofector solution (for VSMC: Cat. No. VPI-1004; for MEF: Cat. No.: VPD-1005, both provided by Amaxa GmBH, Köln, Germany) and mixed with 100 nmole (in 10 μl) of each peptide. The cell solution was transferred into a kit-provided cuvette and positioned into a Nucleofector device. Subsequently, the transfection was performed with a single pulse using the preprogrammed nucleofection program (A-33 for VSMC; T-20 for MEF) according to the manufacturer's recommendation. Following nucleofection, the cells were transferred into 96-well plate (2K or 5K cells per well for MTT assay) or T25 culture flasks (for FACS analysis) containing pre-warmed stem cell medium using kit-provided plastic pipettes to prevent cell damage and the cells were cultured at 37° C. in 5% CO2.

Data set [2] concerns the target T1, cyclin E/CDK2 (Mus musculus, UniProt P0DP26).
T1 construct: endogenous in cells; host or cells: primary mouse aortic VSMC (G1/S-synchronized), immunoprecipitated complexes
Nature of the data set: Histone H1 in vitro kinase assay. The settings on record: G1/S-synchronized mouse VSMC, each peptide 100 μM. Type of data set: biochemical. How it is done:
Immunoprecipitation and kinase assays. 5×10^6 SMC were harvested and re-suspended with 2 ml of lysis buffer (50 mM Tris (pH 7.4), 250 mM NaCl, 5 mM EDTA, 0.1% NP-40, 0.5 mM DTT, 0.1 mM Na3VO4, 5 μg/ml leupeptin, 5 μg/ml aprotinin, 2 mM PMSF, and 10% glycerol). After homogenization, cell lysates were clarified by centrifugation at 12×10^3 rpm, 4° C. for 30 min, and the supernatant was collected. An aliquot was taken for protein concentration determination using the BCA protein assay kit (Sigma). Cell extracts (200 μg) were then incubated for 2 hr at 4° C. with saturating concentrations of polyclonal antibodies (Abs). […]
For the in vitro kinase assays, 20 μl of kinase reaction mixture (20 mM Tris (pH 7.4), 5 mM MgCl2, 2.5 mM MnCl2, 1 mM DTT, 10 μg of C-terminal of human Rb protein (Upstate Biotech.) or 4 μg of histone-H1 (Upstate Biotech.) as substrates, 13 μM ATP, and 2.4 μCi [γ-^32P]ATP (Amersham Pharmacia)) was added to CDK2-, cyclin E-, or cyclin A-immunoprecipitated (IPd) complexes after removing the washing buffer from GammaBind™ G Sepharose resin. Based on the total calcium content of kinase reaction mixtures (as determined by inductively coupled plasma atomic emission spectrometry), amounts of EGTA required to yield final concentrations of free Ca^2+ ion (0, 100 or 500 nM) were calculated by WinMaxC (http://www.stanford.edu/˜cpatton/winmaxc2.html). […]

In data set [3] the test system is primary mouse aortic SMC. Nature of the data set: Lactate dehydrogenase (LDH) cytotoxicity assay. It counts as cell-based. Conditions: nucleofection, 1 mM, asynchronized cells. How it is done:
Lactate dehydrogenase (LDH) assay. To measure the level of cytotoxicity, LDH based in vitro toxicology assay kit (Sigma, Cat. No.: TOX-7) was used (Legrand, 1992). After nucleofection of peptides, 10^6 cells were grown on 24-well plate in the presence of phenol red free DMEM. 3 days later, 500 μl of cell culture media was collected from each well for assay followed by centrifugation (12,000 rpm, 30 min, at 4° C.) to remove any cell debris completely. Subsequent procedures for enzymatic assay were performed according to manufacture's protocol.
Nucleofection. For peptides delivery via Nucleofector technology, 1×10^6 cells were harvested, resuspended in 100 μl of Nucleofector solution (for VSMC: Cat. No. VPI-1004; for MEF: Cat. No.: VPD-1005, both provided by Amaxa GmBH, Köln, Germany) and mixed with 100 nmole (in 10 μl) of each peptide. The cell solution was transferred into a kit-provided cuvette and positioned into a Nucleofector device. Subsequently, the transfection was performed with a single pulse using the preprogrammed nucleofection program (A-33 for VSMC; T-20 for MEF) according to the manufacturer's recommendation. […]

The subject of data set [4] is Saos-2 (human osteosarcoma). In words: MTT proliferation assay, Saos-2. Type of data set: cell-based. The settings on record: 100 μM, MTT after 2 days. How it is done: as §1, §2
Background: Tetrazolium dyes change colour on reduction, which living cells bring about.

For data set [5], the system named is HeLa (human cervical cancer cell). In words: MTT proliferation assay, HeLa. It counts as cell-based. The settings on record: 100 μM, MTT after 2 days. How it is done:
as §1, §2

Data set [6] deals with A549 (human lung cancer cell). Nature of the data set: MTT proliferation assay, A549. Conditions: 100 μM, MTT after 2 days. It counts as cell-based. How it is done: as §1, §2
Data set [7] concerns mouse carotid artery injury model. In words: Mouse carotid artery injury model (wire denudation). Conditions: truncated peptides, arteries harvested 14 days following injury. Type of data set: in vivo. How it is done:
Injury of mouse carotid arteries (wire denudation) and local administration of CBS peptide. The mice (8-12 weeks, 20-25 g) were anesthetized with i.p. Ketamine (100 mg/kg, MTC Pharmaceuticals, Cambridge, ON, Canada) and Xylazine (10 mg/kg, Bayer Inc., Etobicoke, ON, Canada). Surgical procedures were performed under a dissecting microscope (MZ6 Leica, Heerbrugg, Switzerland). The left carotid artery was exposed via a midline incision on the ventral side of the neck. The bifurcation of the carotid artery was located and two ligatures were placed around the external carotid artery. This vessel was then tied off with the distal ligature. […] An incision hole is made between the two ligatures of external carotid artery, through which the denudation device is introduced. This device consists of a curved flexible copper wire (0.3 mm diameter) which is passed down to the common carotid artery, and under rotation, passed along this segment four times. The wire was then removed, and the external carotid artery was tied off proximal to the incision hole with the proximal ligature. […]
Tissue processing and analysis. […] Images were analyzed by planimetry using Image J software. […] Medial mass was calculated subtracting the luminal from whole area. […]

For data set [8], the system named is primary human aortic VSMC. Nature of the data set: 3H-thymidine incorporation assay, human aortic VSMC. Type of data set: cell-based. Conditions: 10 and 100 μM for 1.0 h, 72 h after treatment. How it is done: Cell culture conditions The isolation and culture of primary mouse aortic VSMC have was performed according to methods previously described (Afroze T, Yang L L, Wang C, Gros R, Kalair W, Hogue A N, Mungrue I N, Zhu Z, Husain M. Calcineurin-independent regulation of plasma membrane Ca2+ ATPase-4 in the vascular smooth muscle cell cycle. Am J Physiol Cell Physiol. July 2003; 285(1):C88-95). VSMCs were grown in DMEM (GIBCO/BRL, Gaithersburg, Md.) supplemented with 10% FBS (Hyclone, Logan, Utah), 50 ng/mL platelet-derived growth factor (PDGF, Sigma) and 1% penicillin-streptomycin (GIBCO/BRL). For serum starvation, cells were grown to 60% to 70% confluence, washed twice with PBS, and cultured in starvation medium (0.25% FBS-supplemented DMEM) for 72 hours to achieve Go arrest. Progression to G1/S was brought about by stimulation with 10% FBS and 50 ng/mL PDGF for 24 hours. Cells and reagents for primary human aortic VSMC culture were purchased from Cascade Biologics. […]
^3H-thymidine incorporation proliferation assay. […] Cells were grown at 37° C. and analyzed at 24, 48 and 72 h after ^3H-thymidine exposure. […] Solubilized contents of wells were removed and added to 2.5 ml of scintillation fluid (ReadySafe™ Cocktail, Beckman Coulter, Product No. 141349). Radioactivity was measured in a scintillation counter (Beckman Coulter, LS 6500).
(Dividing cells build labelled thymidine or BrdU into new DNA.)

Where no end group is shown, it is not given here.

“FAFGRQVNKARSEKALGVSDRT [scrambled, reference compound]”: the “proliferation of primary mouse aortic SMC (MTT)” value in data set [1] (peptide delivered via nucleofection) is recorded as “no effect”.

On to GGAEFSARSRKRKANVTVFLQD [CBS], for which the “inhibition of in vitro cyclin E/CDK2 activity” value in data set [2] was 40%. Besides, in data set [3], the “cell death (LDH assay)” value is given as “did not cause any increase in cell death”. In addition, the “maximum level of inhibition of VSMC proliferation” value in data set [1] is recorded as 50%.

On to “RRRQRRKKRG [TAT domain, reference compound]”, for which, in data set [4], the “proliferation of Saos-2 cells (MTT)” value is “no anti-proliferative effect”. Also, in data set [5], the “proliferation of HeLa cells (MTT)” value is “no anti-proliferative effect”. Also, the “proliferation of A549 cells (MTT)” value in data set [6] is recorded as “no anti-proliferative effect”. The “proliferation of primary mouse aortic SMC (MTT), TAT-fused peptides” value (from here on “proliferation … TAT-fused peptides”) in data set [1] is on record as “no anti-proliferative effect”.

In the case of “RRRQRRKKRGAEFSARSRKRKANVTVFL (N-terminal TAT peptide; listed as Homo sapiens) [TAT-SEQ ID NO:2 (#3-20)]”, the “proliferation of Saos-2 cells (MTT)” value in data set [4] was “most powerfully and efficiently”. The “proliferation of HeLa cells (MTT)” value in data set [5] was “most powerfully and efficiently”. In data set [7], the “anti-proliferative effect on the site of injury (media mass, I/M ratio)” value is “anti-proliferative effect”. The “proliferation of A549 cells (MTT)” value in data set [6] is “most powerfully and efficiently”. For the same sequence, the “proliferation … TAT-fused peptides” value in data set [1] is “most powerfully and efficiently”.

Take “RRRQRRKKRGEFSARSRKRKANVTVF (N-terminal TAT peptide; listed as Homo sapiens) [TAT-SEQ ID NO:2 (#4-19)]”: the “proliferation of Saos-2 cells (MTT)” value in data set [4] is “started to lose its proliferative function”. Also, the “proliferation of HeLa cells (MTT)” value in data set [5] is on record as “started to lose its proliferative function”. In addition, the “proliferation of A549 cells (MTT)” value in data set [6] is reported as “started to lose its proliferative function”. Moreover, the “proliferation … TAT-fused peptides” value in data set [1] is given as “started to lose its proliferative function”.

For “RRRQRRKKRGVDIDQARLKMLGQTRPHDDDDC [TAT-NC, reference compound]”, the “3H-thymidine incorporation (S-phase entry), human aortic VSMC” value in data set [8] was “not”.

On to “RRRQRRKKRGVTVFL (N-terminal TAT cell-penetrating peptide; listed as Homo sapiens) [TAT-SEQ ID NO:2(#16-20)]”, for which the “anti-proliferative effect on the site of injury (media mass, I/M ratio)” value in data set [7] is listed as “anti-proliferative effect”.

The values above are taken from patent publication US20110105382A1, “CALMODULIN-BINDING PEPTIDES THAT REDUCE CELL PROLIFERATION IN CANCER AND SMOOTH MUSCLE PROLIFERATION DISEASES” (priority 2007, published 2011).
